What was measured:
[1] = tested on: human eosinophils (PGE2 production); experiment: PGE2 production by human eosinophils (priming, A23187 stimulation, ELISA); type: cell-based; settings: 10 μg/mL pretreatment
Protocol: FIG. 2B is a graph illustrating the effect of arachidonic acid (AA) and oleic acid (OA) on induction of lipid body formation (black) and priming effects (white) for enhanced prostaglandin E2 (PGE2) by human eosinophils. Eosinophils (10^6 /mL) were stimulated for one hour with arachidonic acid (3.7, 7.5, 15 μM) or oleic acid (2.5, 5, 10 μM). Lipid bodies were enumerated using light microscopy following osmium staining. The concentration of PGE2 in the supernatant was measured by ELISA after incubation with A23187 (0.5 μM) for 15 minutes at 37° C. Data are expressed as mean from 2 independent assays performed in duplicate.
After the incubation time, a sample was taken for lipid body enumeration and the cells were washed in Ca^++ /Mg^++ free HBSS. Leukocytes were resuspended in 1 mL of HBSS containing Ca^++ /Mg^++ and then stimulated with A23187 (0.5 μM) for 15 min. The reaction was stopped on ice, and the samples were centrifuged at 1500 rpm for 10 min at 4° C. The concentrations of PGE2, LTB4, and LTC4 in the supernatants were assayed by ELISA according to the manufacturer's instructions (Cayman, Ann Arbor, Mich.).

[2] = tested on: neutrophils (arachidonic acid uptake); experiment: 14C-arachidonic acid uptake in arachidonic acid-stimulated neutrophils; type: cell-based, human
Protocol: Neutrophils (10^6 /mL) were labeled with ^14 C-arachidonic acid (0.01 μCi/sample) together with either vehicle, aspirin (10 μg/mL), indomethacin (1 μg/mL) or sodium salicylate (10 μg/mL) for 1 hour. After the incubation period, lipid body formation was elicited by arachidonic acid (15 μM). The cells were washed 3 times in Ca^++ /Mg^++ free HBSS and analysis of incorporated ^14 C-arachidonic acid in the cell pellet was performed by liquid scintillation counting.
^1 The cells were pretreated with ^14 Carachidonic acid (0.01
μCi/sample) plus vehicle, aspirin (10 μg/ml) , sodium salicylate (1
μg/ml) or indomethacin (1 μg/ml) 1 h before the incubation with
arachidonic acid (15 μM). Cells were washed 3 times before the analysi
of incorporated ^14 Carachidonic acid. Results are representative of
independent experiments.

CC(=O)Oc1ccccc1C(=O)O [aspirin]
inhibition of PGE2 production [1]: inhibited PGE2 production | inhibition of 14C-arachidonic acid uptake ([2]; arachidonic acid-stimulated cells, aspirin 10 μg/mL, sodium salicylate 10 μg/mL, indomethacin 1 μg/mL): failed to inhibit | 14C-AA uptake ([2]; stimulus arachidonate 15 μM, drug 10 μg/ml): 6974 cpm

Source: patent publication US5837548A, “Treatment of inflammation by inhibition of lipid body formation” (Beth Israel Hospital, priority 1995, dated 1998)
